Data from PubChem BioAssay (NCI).
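GI50 is the concentration that inhibits growth by half. TGI: concentration producing complete growth inhibition.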

How the values were obtained:
Test in all cases: growth of human tumour cells (NCI), 384-well format
NCI/ADR-RES ovarian = system: NCI/ADR-RES ovarian
K-562 leukemia = system: K-562 leukemia
M14 melanoma = system: M14 melanoma
SNB-19 CNS = system: SNB-19 CNS
SNB-75 CNS = system: SNB-75 CNS
MDA-MB-468 breast = system: MDA-MB-468 breast
PC-3 prostate = system: PC-3 prostate
SK-MEL-5 melanoma = system: SK-MEL-5 melanoma
HT29 colon = system: HT29 colon
RPMI-8226 leukemia = system: RPMI-8226 leukemia
786-0 renal = system: 786-0 renal
MDA-MB-435 melanoma = system: MDA-MB-435 melanoma
TK-10 renal = system: TK-10 renal
COLO 205 colon = system: COLO 205 colon
SR leukemia = system: SR leukemia
A549 NSCLC = system: A549 NSCLC
HCC-2998 colon = system: HCC-2998 colon
OVCAR-4 ovarian = system: OVCAR-4 ovarian
MDA-MB-231 breast = system: MDA-MB-231 breast
NCI-H522 lung = system: NCI-H522 lung
SN12C renal = system: SN12C renal
LOX IMVI melanoma = system: LOX IMVI melanoma
HS 578T breast = system: HS 578T breast
UO-31 renal = system: UO-31 renal
MCF7 breast = system: MCF7 breast
DU-145 prostate = system: DU-145 prostate
KM12 colon = system: KM12 colon
SF-268 CNS = system: SF-268 CNS
HL-60(TB) leukemia = system: HL-60(TB) leukemia
EKVX NSCLC = system: EKVX NSCLC
HOP-92 NSCLC = system: HOP-92 NSCLC
CAKI-1 renal = system: CAKI-1 renal
ACHN renal = system: ACHN renal
SF-539 CNS = system: SF-539 CNS
T-47D breast = system: T-47D breast
MOLT-4 leukemia = system: MOLT-4 leukemia
HCT-15 colon = system: HCT-15 colon
IGROV1 ovarian = system: IGROV1 ovarian
NCI-H23 lung = system: NCI-H23 lung
A498 renal = system: A498 renal
NCI-H226 lung = system: NCI-H226 lung
SK-MEL-28 melanoma = system: SK-MEL-28 melanoma
UACC-257 melanoma = system: UACC-257 melanoma
NCI-H460 NSCLC = system: NCI-H460 NSCLC
CCRF-CEM leukemia = system: CCRF-CEM leukemia
NCI-H322M lung = system: NCI-H322M lung

`COc1cc(OC)c(F)c(COc2cnc(Nc3cnn(CCO)c3)nc2)c1F` was tested, and the GI50 (NCI/ADR-RES ovarian) was 442 nM, the TGI (NCI/ADR-RES ovarian) was 1830 nM and the GI50 (K-562 leukemia) was 264 nM. It also gave a TGI (K-562 leukemia) of 1100 nM, a GI50 (M14 melanoma) of 239 nM and a TGI (M14 melanoma) of 709 nM. For the same molecule, the GI50 (SNB-19 CNS) was 681 nM, the TGI (SNB-19 CNS) was > 100000 nM and the GI50 (SNB-75 CNS) was 140 nM. The TGI (SNB-75 CNS) was 467 nM, the GI50 (MDA-MB-468 breast) was 234 nM and the TGI (MDA-MB-468 breast) was 514 nM. The GI50 (PC-3 prostate) was 1250 nM, the TGI (PC-3 prostate) was > 100000 nM and the GI50 (SK-MEL-5 melanoma) was 383 nM. It also gave a TGI (SK-MEL-5 melanoma) of 1580 nM, a GI50 (HT29 colon) of 343 nM and a TGI (HT29 colon) of 1070 nM. It also gave a GI50 (RPMI-8226 leukemia) of 307 nM, a TGI (RPMI-8226 leukemia) of 1240 nM and a GI50 ([…]-0 renal) of 425 nM. For the same molecule, the TGI (786-0 renal) was > 100000 nM, the GI50 (MDA-MB-435 melanoma) was 177 nM and the TGI (MDA-MB-435 melanoma) was 411 nM. For the same molecule, the GI50 (TK-10 renal) was 714 nM, the TGI (TK-10 renal) was > 100000 nM and the GI50 (COLO 205 colon) was 454 nM. It also gave a TGI (COLO 205 colon) of 3210 nM, a GI50 (SR leukemia) of 41.1 nM and a TGI (SR leukemia) of 165 nM. The GI50 (A549 NSCLC) was 1270 nM, the TGI (A549 NSCLC) was > 100000 nM and the GI50 (HCC-2998 colon) was 751 nM. The TGI (HCC-2998 colon) was > 100000 nM, the GI50 (OVCAR-4 ovarian) was 8520 nM and the TGI (OVCAR-4 ovarian) was > 100000 nM. The GI50 (MDA-MB-231 breast) was 657 nM, the TGI (MDA-MB-231 breast) was > 100000 nM and the GI50 (NCI-H522 lung) was 257 nM. It also gave a TGI (NCI-H522 lung) of 658 nM, a GI50 (SN12C renal) of 1180 nM and a TGI (SN12C renal) of 6330 nM. For the same molecule, the GI50 (LOX IMVI melanoma) was 485 nM, the TGI (LOX IMVI melanoma) was 3820 nM and the GI50 (HS 578T breast) was 226 nM. For the same molecule, the TGI (HS 578T breast) was 672 nM, the GI50 (UO-31 renal) was 844 nM and the TGI (UO-31 renal) was > 100000 nM. The GI50 (MCF7 breast) was 408 nM, the TGI (MCF7 breast) was > 100000 nM and the GI50 (DU-145 prostate) was 1600 nM. For the same molecule, the TGI (DU-145 prostate) was > 100000 nM, the GI50 (KM12 colon) was 327 nM and the TGI (KM12 colon) was 3410 nM. The GI50 (SF-268 CNS) was 491 nM, the TGI (SF-268 CNS) was 3680 nM and the GI50 (HL-60(TB) leukemia) was 140 nM. The TGI (HL-60(TB) leukemia) was 272 nM, the GI50 (EKVX NSCLC) was 828 nM and the TGI (EKVX NSCLC) was > 100000 nM. The GI50 (HOP-92 NSCLC) was 747 nM, the TGI (HOP-92 NSCLC) was 4740 nM and the GI50 (CAKI-1 renal) was 353 nM. For the same molecule, the TGI (CAKI-1 renal) was 1650 nM, the GI50 (ACHN renal) was 1020 nM and the TGI (ACHN renal) was > 100000 nM. For the same molecule, the GI50 (SF-539 CNS) was 340 nM, the TGI (SF-539 CNS) was 1500 nM and the GI50 (T-47D breast) was 810 nM. The TGI (T-47D breast) was > 100000 nM, the GI50 (MOLT-4 leukemia) was 187 nM and the TGI (MOLT-4 leukemia) was 356 nM. The GI50 (HCT-15 colon) was 386 nM, the TGI (HCT-15 colon) was > 100000 nM and the GI50 (IGROV1 ovarian) was 536 nM. For the same molecule, the TGI (IGROV1 ovarian) was > 100000 nM, the GI50 (NCI-H23 lung) was 494 nM and the TGI (NCI-H23 lung) was 2240 nM. The GI50 (A498 renal) was 355 nM, the TGI (A498 renal) was > 100000 nM and the GI50 (NCI-H226 lung) was 260 nM. For the same molecule, the TGI (NCI-H226 lung) was 2290 nM, the GI50 (SK-MEL-28 melanoma) was 741 nM and the TGI (SK-MEL-28 melanoma) was > 100000 nM. For the same molecule, the GI50 (UACC-257 melanoma) was 2120 nM, the TGI (UACC-257 melanoma) was > 100000 nM and the GI50 (NCI-H460 NSCLC) was 353 nM. For the same molecule, the TGI (NCI-H460 NSCLC) was 1000 nM, the GI50 (CCRF-CEM leukemia) was 204 nM and the TGI (CCRF-CEM leukemia) was 397 nM. For the same molecule, the GI50 (NCI-H322M lung) was 1790 nM and the TGI (NCI-H322M lung) was > 100000 nM.
